Values after ≈ are worked out from the molar mass of the structure shown.
Key:
[1] = tested on: E. coli clinical isolates; assay: MIC on panel of E. coli clinical isolates; assay type: cell-based
ATCC25922 = assay: MIC on E. coli ATCC25922; assay type: cell-based; conditions: strain ATCC25922
Description: The inoculum used for all the experiments is derived from a single seed lot that is maintained as glycerol stocks at −80 °C and are sub cultured on LB plate for isolated colonies. Single colony of each strain is grown in M9 medium. All test compound stocks and dilutions are prepared in DMSO. Serial two-fold dilutions of compounds are prepared separately, with the concentrations ranging from 2 mg/mL to 0.015 mg/mL. To 150 µl (3–7 × 10^5 CFU/ml) of bacterial culture in 96 well microtitre plates, 3 μL compound from each of the dilutions is added to respective wells to obtain final concentrations ranging from 40 µg/mL to 0.3 µg/mL of the test compounds. Media control, culture control and appropriate reference drug controls are included. […] Growth is monitored by checking absorbance at 600 nm (A600). […] The samples from MIC and above concentrations are plated for MBC (Minimum Bactericidal Concentration). The samples are diluted 1:10 and plated on LB agar plates. […] The killing kinetics is determined by enumerating survivors at various time points following compound exposure. E. coli cells (~10^7 CFU/ml; A600 of 0.1) are treated with various concentrations (40 µg/mL to 0.3 µg/mL) of compounds in a 96-well microtitre plate. At various time intervals (0 to 8 h), 30 μl volumes of treated cultures are serially diluted and plated on LB agar plates. […] Data is expressed as the log10 CFU for each drug treatment.

Compound CNC(C)C1CCC(N)C(OC2C(N)CC(N)C(OC3OCC(C)(O)C(NC)C3O)C2O)O1 (centres unmarked) [gentamicin, reference compound] has an MIC50 ([1]; Escherichia coli, 75 E.coli clinical isolates, 50% clinical isolates) of 16 µg/mL (≈ 33.5 µM), an MIC90 ([1]; Escherichia coli, 75 E.coli clinical isolates, 90% clinical isolates) of over 64 µg/mL and an MIC ([1]; strain SEC001) of over 64 µg/mL. It also gave an MIC ([1]; strain SEC002) of 4 µg/mL (≈ 8.38 µM), an MIC ([1]; strain SEC003) of over 64 µg/mL and an MIC ([1]; strain SEC004) of 4 µg/mL (≈ 8.38 µM). It also gave an MIC ([1]; strain SEC005) of over 64 µg/mL, an MIC ([1]; strain SEC006) of 4 µg/mL (≈ 8.38 µM) and an MIC ([1]; strain SEC007) of over 64 µg/mL. The MIC ([1]; strain SEC008) was over 64 µg/mL, the MIC ([1]; strain SEC011) was over 64 µg/mL and the MIC ([1]; strain SEC012) was 4 µg/mL (≈ 8.38 µM). For the same compound, the MIC ([1]; strain SEC013) was over 64 µg/mL, the MIC ([1]; strain SEC014) was over 64 µg/mL and the MIC ([1]; strain SEC015) was over 64 µg/mL. The MIC ([1]; strain SEC016) was 4 µg/mL (≈ 8.38 µM), the MIC ([1]; strain SEC017) was over 64 µg/mL and the MIC ([1]; strain SEC018) was 0.5 µg/mL (≈ 1.05 µM). The MIC ([1]; strain SEC019) was over 64 µg/mL, the MIC ([1]; strain SEC020) was 2 µg/mL (≈ 4.19 µM) and the MIC ([1]; strain SEC021) was over 64 µg/mL. It also gave an MIC ([1]; strain SEC022) of over 64 µg/mL, an MIC ([1]; strain SEC023) of 4 µg/mL (≈ 8.38 µM) and an MIC ([1]; strain SEC024) of over 64 µg/mL. It also gave an MIC ([1]; strain SEC025) of over 64 µg/mL, an MIC ([1]; strain SEC026) of 2 µg/mL (≈ 4.19 µM) and an MIC ([1]; strain SEC028) of 2 µg/mL (≈ 4.19 µM). It also gave an MIC ([1]; strain SEC029) of 4 µg/mL (≈ 8.38 µM), an MIC ([1]; strain SEC031) of over 64 µg/mL and an MIC ([1]; strain SEC032) of 4 µg/mL (≈ 8.38 µM). It also gave an MIC ([1]; strain SEC033) of over 64 µg/mL, an MIC ([1]; strain SEC034) of 2 µg/mL (≈ 4.19 µM) and an MIC ([1]; strain SEC035) of over 64 µg/mL. It also gave an MIC ([1]; strain SEC036) of 4 µg/mL (≈ 8.38 µM), an MIC ([1]; strain SEC037) of 4 µg/mL (≈ 8.38 µM) and an MIC ([1]; strain SEC038) of 4 µg/mL (≈ 8.38 µM). For the same compound, the MIC ([1]; strain SEC039) was 2 µg/mL (≈ 4.19 µM), the MIC ([1]; strain SEC040) was 32 µg/mL (≈ 67 µM) and the MIC ([1]; strain SEC041) was 4 µg/mL (≈ 8.38 µM). The MIC ([1]; strain SEC042) was over 64 µg/mL, the MIC ([1]; strain SEC043) was over 64 µg/mL and the MIC ([1]; strain SEC044) was over 64 µg/mL. The MIC ([1]; strain SEC045) was 4 µg/mL (≈ 8.38 µM), the MIC ([1]; strain SEC046) was 4 µg/mL (≈ 8.38 µM) and the MIC ([1]; strain SEC047) was over 64 µg/mL. For the same compound, the MIC ([1]; strain SEC048) was 4 µg/mL (≈ 8.38 µM), the MIC ([1]; strain SEC049) was 4 µg/mL (≈ 8.38 µM) and the MIC ([1]; strain SEC050) was over 64 µg/mL. The MIC ([1]; strain SEC051) was 2 µg/mL (≈ 4.19 µM), the MIC ([1]; strain SEC052) was 2 µg/mL (≈ 4.19 µM) and the MIC ([1]; strain SEC053) was over 64 µg/mL. For the same compound, the MIC ([1]; strain SEC054) was 8 µg/mL (≈ 16.8 µM), the MIC ([1]; strain SEC055) was 2 µg/mL (≈ 4.19 µM) and the MIC ([1]; strain SEC057) was 4 µg/mL (≈ 8.38 µM). For the same compound, the MIC ([1]; strain SEC058) was 4 µg/mL (≈ 8.38 µM), the MIC ([1]; strain SEC059) was 2 µg/mL (≈ 4.19 µM) and the MIC ([1]; strain SEC060) was 32 µg/mL (≈ 67 µM). The MIC ([1]; strain SEC061) was over 64 µg/mL, the MIC ([1]; strain SEC062) was 8 µg/mL (≈ 16.8 µM) and the MIC ([1]; strain SEC063) was 0.5 µg/mL (≈ 1.05 µM). It also gave an MIC ([1]; strain SEC064) of over 64 µg/mL, an MIC ([1]; strain SEC065) of over 64 µg/mL and an MIC ([1]; strain SEC067) of 4 µg/mL (≈ 8.38 µM). For the same compound, the MIC ([1]; strain SEC068) was over 64 µg/mL, the MIC ([1]; strain SEC069) was over 64 µg/mL and the MIC ([1]; strain SEC070) was over 64 µg/mL. For the same compound, the MIC ([1]; strain SEC071) was 32 µg/mL (≈ 67 µM), the MIC ([1]; strain SEC072) was over 64 µg/mL and the MIC ([1]; strain SEC073) was over 64 µg/mL. For the same compound, the MIC ([1]; strain SEC074) was over 64 µg/mL, the MIC ([1]; strain SEC075) was over 64 µg/mL and the MIC ([1]; strain SEC076) was 4 µg/mL (≈ 8.38 µM). It also gave an MIC ([1]; strain SEC077) of 16 µg/mL (≈ 33.5 µM), an MIC ([1]; strain SEC078) of over 64 µg/mL and an MIC ([1]; strain SEC079) of over 64 µg/mL. It also gave an MIC ([1]; strain SEC080) of 4 µg/mL (≈ 8.38 µM) and an MIC (ATCC25922) of 2 µg/mL (≈ 4.19 µM).

— PMC5940854, “Nitrothiophene carboxamides, a novel narrow spectrum antibacterial series: Mechanism of action and Efficacy” (Scientific Reports, 2018)
